Several values for one entry are separate records, joined by “and”; a condition that tells them apart may be missing. Equal values may be shown once.
Tests used:
[1] = Control experiments for photo-bleaching; assay type: physicochemical; details: three consecutive spectrum records, 20° C.
Description: For measurements associated with examination of ligand-induced response of TqLPNG biosensor fluorescence emission 0.1 mM BAI-2 stock solution was freshly prepared and contained 1 mM DPD and 4 mM boric acid in 50 mM HEPES buffer (pH 7.5) (Semmelhack et al., 2005). To test the biosensor fluorescence response for BAI-2 binding 400 μL samples having the same biosensor concentration (50 nM) and variable BAI-2 concentrations in 50 mM HEPES (pH 7.5)/0.4 mM boric acid/0.1 mM EDTA/0.15 M NaCl were prepared from the protein and the ligand stock solutions using analytical balances. Fluorescence emission spectra were taken following 3 min temperature equilibration of the sample within the temperature controlled cell holder (set for 20° C.).

[2] = TqLPNG fluorescence emission response towards BAI-2 binding at different NaCl concentrations; assay type: biochemical
Description: FIG. 8 (A-B): Response of the fluorescence emission spuctrum of TqLPNGh towards BAI-2 binding at different concentrations.of sodium chloride. Emission spectra (solid lines) were deconvoluted into the donor (dotted lines) and the acceptor (dashed lines) emission components, and the evaluation for the FRET efficiency (E values) was performed through enhancement in the acceptor emission referenced to the directly excited acceptor emission (the grey lines) as described under Materials and Methods. The spectra were recorded by using an excitation wavelength of 440 nm. Measurements were performed in a 50 mM HEPES (pH 7.5)/0.1 mM EDTA buffer (containing the specified amount of NaCl) with 50 nM TLPNGh.
FIG. 9: An example of fluorescence emission spectrum of TqLPNGh and its response to BAI-2 binding. (9A) Emisson spectra of 50 nM TqLPNGh in 50 mM HEPES (pH 7.5)/0.1 mM EDTA buffer in the absence (the grey line) and in the presence of 10 μM BAI-2 (the black line). The spectra were recorded by using a 440 nm excitation wavelength. (9B) Dependence of the BAI-2 binding TqLPNGh emission response (expressed as decrease in acceptor-to-donor emission ratio induced by BAI-2 binding) on concentration of NaCl.
TqLPNG fluorescence response towards BAI-2 binding was examined at different concentrations of NaCl (see FIG. 8). At any salt concentration, BAI-2 binding yielded an increase in the biosensor donor emission and the corresponding decrease in the acceptor emission, originated from the ligand-induced decrease in FRET between the donor and the acceptor chromophores. Indeed, for any salt concentration BAI-2 binding caused a decrease in FRET efficiency (follow the E-values in FIG. 8) and associated decrease in the acceptor-to-donor emission ratio. […] The observable BAI-2 binding amplitude was maximal at low salt buffer (−49%), strongly dropped at 0.15 M and became too small (for BAI-2 quantification applications) at 0.3 M and higher NaCl concentrations. […]
A Cary 300 spectrophotometer (Agilent/Varian Technologies) and FluoroMax fluorescence spectrophotometer (Horiba Scientific) equipped with Peltier-based temperature controlled cell holders were used for absorbance and fluorescence measurements, respectively. […] Fluorescence emission spectra were recorded in a 4 mm fluorescence cell by using 2 nm slit width at both excitation and emission monochromators. Typically, 50 nM protein concentrations were employed for fluorescence measurements. […]
FRET efficiency in TqLPNG was determined under variety of solution conditions by measurements of the emission spectra of TqLPNG (DA-species) alternatively excited at 440 nm and 505 nm. […]

[3] = Titration of TqLPNGh biosensor with BAI-2 monitored through acceptor-to-donor emission ratio; assay type: binding
Description: FIG. 13: Titration of TqLPNGh biosensor with autoinducer BAI-2 monitored through acceptor-to-donor emission ratio (A-to-D ratio). Measurements of TqLPNGh fluorescence emission spectra were performed in 50 mM HEPES (pH 7.5)/0.1 mM EDTA/0.4 mM boric acid//0.15 M NaCl buffer using 50 nM TqLPNGh. Emission spectra of TqLPNG were recorded by using 440 nm excitation. The values for the A-to-D ratio for the BIA-2 titration (the filled circles) were fitted to the phenomenological Hill equation to get BAI-2 concentration corresponding to the half decrease in A-to-D ratio (C50%). The values for A-to-D ratio corresponding to the control titration, i.e., titration of TqLPNGh with the ligand-free plain buffer, are shown as unfilled circles.
The values for D-to-A fluorescence ratio values BAI-2 concentration were plotted and then fitted with the phenomenological Hill equation or with the simple single site binding model. […] The presence of boric acid in the assay buffer (i.e., 50 mM HEPES (pH 7.5)/0.1 mM EDTA/0.15 M NaCl/0.4 mM boric acid) may be beneficial. Deficiency in boric acid may cause strong reduction in the apparent ligand affinity, yielding enhanced Kd-value and, therefore, a strong decrease in biosensor sensitivity.]
A Cary 300 spectrophotometer (Agilent/Varian Technologies) and FluoroMax fluorescence spectrophotometer (Horiba Scientific) equipped with Peltier-based temperature controlled cell holders were used for absorbance and fluorescence measurements, respectively. To characterize fluorescent proteins, all measurements (including TqLPNGh titration with BAI-2) were performed at 20° C. with proteins prepared in 50 mM HEPES buffer (pH 7.5)/0.1 mM EDTA, containing different NaCl concentrations. Fluorescence emission spectra were recorded in a 4 mm fluorescence cell by using 2 nm slit width at both excitation and emission monochromators. Typically, 50 nM protein concentrations were employed for fluorescence measurements. The protein stock solutions were prepared in 50 mM HEPES buffer (pH 7.5)/0.1 mM EDTA/0.3 M NaCl at 2 μM (for the TqLPNG) or 10 μM (for Tqh or NGh) concentration.

[4] = Prolonged storage of TqLPNG examined through size-exclusion chromatography; assay type: physicochemical
Description: FIG. 12: Accumulation of high order associates of TqLPNGh during its prolonged storage in the salt-free 50 mM HEPES (pH 7.5)/0.1 mM EDTA buffer at 4° C., examined through size-exclusion chromatography. The purified TqLPNG preparation (at ˜ 9 μM protein concentration) was stored at 4° C. in plain He buffer (containing 0.25 mM DTT and 0.25 mM TCEP) at 4° C. for about 3 weeks. 0.25 mL of the TqLPNGh solution was then mixed the equal volume of the appropriate buffer to get 0, 0.15 or 0.3 M NaCl final concentration. Following 1-2 hrs incubation (at 4° C.), the diluted protein was injected into Superdex 20010/300 column equlibrated with He, He+0.15 M NaCl or He+0.3 M NaCl buffer, respectively. The protein elution was detected through absorbance at 280 nm. The flow rate was 0.5 mL/min. The large overlapping peaks at 9-12 elution volume correspond to high order TqLPNG associates. Positions of peakes corresponding to TqLPNG dimer or monomer are marked with the arrows.
The reasonable question that follows deciphering the origin of the TqLPNG fluorescence emission response towards BAI-2 binding is to understand the optimal conditions for the biosensor-based determination of BAI-2 concentrations. Low NaCl conditions provide an increased change in acceptor-to-donor emission ratio for the BAI-2 binding favorable for accurate BAI-2 quantification. […] Thus, there should by a compromise between the binding amplitude of the observable signal (i.e., the decrease in the acceptor-to-donor emission ratio corresponding to fully saturated biosensor) and stability of the TqLPNG preparation (against the formation of high order associates).

Substance: TqLPNG: tripartite FRET biosensor fusion mTurquoise2-(24-365)LuxP-mNeonGreen; TqLPNGh carries C-terminal His6 tag (SEQ ID NO. 2), SEQ ID NO. 3 lacks it
- changes in the fluorescence spectrum (photo-bleaching control) [1]: no changes
- magnitude of decrease of the acceptor-to-donor emission ratio on BAI-2 titration ([2]; 50 mM HEPES (pH 7.5)/0.4 mM boric acid/0.1 mM EDTA, 0.15 M NaCl): ~17%
- observable BAI-2 binding amplitude ([2]; 0.3 M and higher NaCl): too small
- decrease in the acceptor to donor emission ratio upon autoinducer-2 binding ([2]; adjustable fluorescence response, maximum): up to 48%
- observable BAI-2 binding amplitude (decrease in acceptor-to-donor emission ratio, fully saturated) ([2]; low salt buffer): −49%
- EC50 ([3]; 50 nM TqLPNG, 50 mM HEPES (pH 7.5)/0.1 mM EDTA/0.15 M NaCl/0.4 mM boric acid, Hill equation fit, read-out: BAI-2 concentration corresponding to the half-transition (C50%) in emission response): 24 ± 1 nM
- Kd ([3]; 50 nM TqLPNG, 50 mM HEPES (pH 7.5)/0.1 mM EDTA/0.15 M NaCl/0.4 mM boric acid, single site binding model, read-out: BAI-2•TqLPNG dissociation constant (Kd)): 9 nM and 10 nM and ~10 nM
- higher sensitivity towards BAI-2 concentration as compared to mCLPY biosensor ([3]; from dissociation constants 10 nM versus 270 nM): more than 10 fold
- stability against formation of high order associates ([4]; 0.3 M NaCl, prolonged storage at 4° C.): no formation of ‘inactive’ high-order associates
- stability against formation of high order associates ([4]; HEPES (pH 7.5) buffer containing 0.15 M NaCl): good stability
- stability against formation of high order associates ([4]; prolonged storage in low salt buffer, 4° C.): accumulation of high-order TqLPNG associates

— patent US20210285940A1, “Improved Fluorescent Resonance Energy Transfer-Based Biosensor Proteins And Their Methods of Use Thereof” (Pebble Labs Inc., priority 2018, published 2021)
